From PMC8213153 (PLoS ONE, 2021)
Values after ≈ are worked out from the molar mass of the structure shown. Where two headings read alike, the source gives them in different places.

Columns and labels:
IL-10 = IL-10 level of virus-infected Vero cells (ELISA); assay type: cell-based
Description: (§1) To enable measurement of IL-6, IL-10 and TNF-α levels, the culture medium of the treated cells was collected in sterile micro-tubes and centrifuged at 3,500 rpm for 20 minutes. The supernatants were carefully collected and diluted with aquadest at a 1:5 volume ratio and vortexed until homogenous. The samples were deposited onto a well-plate, added to ELISA reagents (Bioassay Technology Laboratory, Shanghai, China), and incubated at 37°C for 60 minutes. Reagent substrate solution was then added to the well and incubated for ten minutes at 37°C. The samples were measured for antigen concentration using the optical density (OD) plotted into the standard curves of IL-6, IL-10, and TNF-α.

[1] = cited from earlier work
TNF-α = TNF-α level of virus-infected Vero cells (ELISA); assay type: cell-based
Description: as §1

[2] = Cytotoxicity (MTT) assay of single and dual combinatory drugs; assay type: cell-based; conditions: human; for viability at 48 h, 0.2 μg/mL / viability at 48 h, 2 μg/mL / viability at 48 h, 10 μg/mL / viability at 48 h, 100 μg/mL / viability at 48 h, 400 μg/mL: read-out: Cell Viability (%)
Description: Each tablet containing drugs was triturated and mixed until homogenous. Approximately 50 mg equivalent mass of drugs were weighed and added to dimethyl sulfoxide in order to solubilize the drugs. The suspension was sonicated in a water bath for 15 minutes before being added to Rosewell Park Memorial Institute (RPMI) media, sonicated again and vortexed to mix it until homogenous. The suspension was then filtered through a polycarbonate membrane with a pore size of 0.45 μm and then a pore size of 0.22 μm under aseptic conditions. The filtrate was mixed with 10% foetal bovine serum and penicillin streptomycin before being vortexed to produce a homogenous mixture to be used as a stock solution. The samples were prepared by diluting the stock solution of each drug with RPMI complete media at an appropriate level of dilution to produce a determined concentration. The dual combinatory drugs mixtures were prepared by mixing appropriate amounts of two drug stock solutions in order to produce a final concentration at the required level. The combinatory drugs were evaluated at both constant and non-constant ratios to evaluate their effects on the cytotoxicity, including; antagonistic, synergistic, or additive. A constant ratio of the mixture was achieved by adding drug solutions at the same ratio, thereby increasing each drug concentration, to produce dose escalation. In contrast, at a non-constant ratio, a fixed determined concentration of drug was added to increased doses of other drug solution in order to produce different levels of drug concentration.
The cytotoxic concentration (CC50) of drugs was performed by means of MTT assay at the Stem Cell Research and Development Center, Universitas Airlangga using human umbilical cord mesenchymal stem cells which had been obtained from human placenta tissue as approved by the Ethical Committee of Universitas Airlangga Hospital (Certificate number 101/KEH/2019 dated January 10, 2019). The cells were prepared as the primary cell culture and used for the cytotoxicity assay because of their sensitivity to chemicals. Cells were seeded into 96-well microplates at a concentration of 1x10^3 cells/well in 100 μL Alpha Minimum Essentials Medium (α-MEM, Gibco, USA) supplemented with 10% foetal bovine serum, 1% penicillin-streptomycin and 1% amphotericin-B. The plates were then incubated in a CO2 incubator at 37°C with 5% CO2 for 24 hours, at which point, the supernatant was replaced with α-MEM containing drugs at each concentration and incubated for a further 48 hours. Approximately 25μL of 3-(4,5-Dimethylthiazol-2-yl)-2,5-diphenyl tetrazolium-bromide (MTT) reagent at a concentration of 5mg/mL was subsequently added to each well and incubated for four hours at 37°C with 5% CO2. Purple formazan crystals were formed and observed under an inverted microscope. Dimethyl sulfoxide was added to each well with the complete solubilisation of formazan crystals subsequently being observed. The greater the number of formazan crystals formed, the lower the toxicity of the samples which were read for optical density of formazan using a multi reader at a measurement wavelength of 595 nm (Promega Glomax, USA). The CC50 value was analyzed by CompuSyn software (the ComboSyn Inc., accessed from www.combosyn.com).
In this study, the cytotoxicity assay was evaluated for single and dual combinatory drugs during a period of 48 hours of drug incubation. This assay was intended to evaluate the toxicity of dual combinatory drugs on normal cells. The combination ratios were calculated taking into consideration the usual therapeutic doses and plasma peak concentrations of the drugs. To determine this cytotoxicity, the drugs were mixed at both constant and non-constant ratios.

SARS-CoV-2 virus = experiment: microbe, parasite or virus in culture; assay type: cell-based; conditions: for Drug concentration that produced an undetected virus copy number: at 24, 48, and/or 72 hours' incubation; for IC50: Severe acute respiratory syndrome coronavirus 2, Vero
IL-6 = IL-6 level of virus-infected Vero cells (ELISA); assay type: cell-based
Description: as §1

[3] = FAVIPIRAVIR-AZITHROMYCIN series
[4] = HYDROXYCHLOROQUINE-FAVIPIRAVIR series

In the case of `CC[C@H]1OC(=O)[C@H](C)[C@@H](O[C@H]2C[C@@](C)(OC)[C@@H](O)[C@H](C)O2)[C@H](C)[C@@H](O[C@@H]2O[C@H](C)C[C@H](N(C)C)[C@H]2O)[C@](C)(OC)C[C@@H](C)C(=O)[C@H](C)[C@@H](O)[C@]1(C)O` [CLA, Clarithromycin], the IL-10 (IL-10; 0.5 μg/mL, 24-h) is reported as 36.80 ± 1.13 pg/mL, the IL-10 (IL-10; 0.5 μg/mL, 48-h) is reported as 105.49 ± 1.32 pg/mL and the IL-10 (IL-10; 0.5 μg/mL, 72-h) is reported as 507.18 ± 0.00 pg/mL. It also gave an IL-10 (IL-10; 4 μg/mL, 24-h) of 36.80 ± 0.08 pg/mL, an IL-10 (IL-10; 4 μg/mL, 48-h) of 58.15 ± 1.41 pg/mL and an IL-10 (IL-10; 4 μg/mL, 72-h) of 498.75 ± 0.00 pg/mL. It also gave an IL-10 (IL-10; 8 μg/mL, 24-h) of 24.75 ± 0.58 pg/mL, an IL-10 (IL-10; 8 μg/mL, 48-h) of 79.10 ± 0.00 pg/mL and an IL-10 (IL-10; 8 μg/mL, 72-h) of 445.89 ± 0.07 pg/mL. The IL-10 (IL-10; 8 μg/mL, 48h) was “↗↗ (8 μg/mL; 48h)”, the “IL-10 levels (in words)” value (IL-10; Table 5) was “increased” and the “Peak Plasma Concentration” value ([1]; oral 250 mg Clarithromycin twice a day) was 1 µg/mL. The “Peak Plasma Concentration” value ([1]; oral 500 mg Clarithromycin twice a day) was 2.41 µg/mL, the TNF-α (TNF-α; 0.5 μg/mL, 24-h) was 20.39 ± 0.57 pg/mL and the TNF-α (TNF-α; 0.5 μg/mL, 48-h) was 426.37 ± 1.40 pg/mL. The TNF-α (TNF-α; 0.5 μg/mL, 72-h) was 612.06 ± 1.54 pg/mL, the TNF-α (TNF-α; 4 μg/mL, 24-h) was 100.04 ± 1.44 pg/mL and the TNF-α (TNF-α; 4 μg/mL, 48-h) was 404.07 ± 0.10 pg/mL. It also gave a TNF-α (TNF-α; 4 μg/mL, 72-h) of 609.56 ± 0.14 pg/mL, a TNF-α (TNF-α; 8 μg/mL, 24-h) of 43.92 ± 1.13 pg/mL and a TNF-α (TNF-α; 8 μg/mL, 48-h) of 382.62 ± 0.86 pg/mL. For the same compound, the TNF-α (TNF-α; 8 μg/mL, 72-h) was 609.56 ± 0.14 pg/mL, the TNF-α (TNF-α; 24, 48, and 72 hours, cell without concentration) was “No effects” and the “TNF-α levels (in words)” value (TNF-α; Table 5) was “no effects”. The CC50 at 48 h ([2]; LOPIRITO-CLA experiment (Fig 5), 48 hours, CompuSyn, n = 3, read-out: CC50) was 2280 µg/mL, the viability at 48 h, 0.2 μg/mL ([2]; LOPIRITO-CLARITHROMYCIN series) was 134% and the viability at 48 h, 2 μg/mL ([2]; LOPIRITO-CLARITHROMYCIN series) was 92.6%. It also gave a viability at 48 h, 10 μg/mL ([2]; LOPIRITO-CLARITHROMYCIN series) of 79.4%, a viability at 48 h, 100 μg/mL ([2]; LOPIRITO-CLARITHROMYCIN series) of 92.6% and a viability at 48 h, 400 μg/mL ([2]; LOPIRITO-CLARITHROMYCIN series) of 74.3%. The “Virus Titer” value (SARS-CoV-2 virus; 0.5 μg/mL, 24-h) was 38.47 viral protein fg/mL, the “Virus Titer” value (SARS-CoV-2 virus; 8 μg/mL, 24-h) was 38.03 viral protein fg/mL and the “Virus Titer” value (SARS-CoV-2 virus; 8 μg/mL, 48-h) was 39.09 viral protein fg/mL. For the same compound, the “Virus Titer” value (SARS-CoV-2 virus; 8 μg/mL, 72-h) was 37.46 viral protein fg/mL, the “Drug concentration that produced an undetected virus copy number” value (SARS-CoV-2 virus; MoI 0.04) was 8 µg/mL and the IC50 (SARS-CoV-2 virus; 24h, MoI 0.04) was 4.6 µg/mL (≈ 6.15 µM). The IC50 (SARS-CoV-2 virus; 48h, MoI 0.04) was 0.6 µg/mL (≈ 0.802 µM), the IC50 (SARS-CoV-2 virus; 72h, MoI 0.04) was 0.9 µg/mL (≈ 1.2 µM) and the IL-6 (IL-6; 0.5 μg/mL, 24-h) was 15.61 ± 0.85 ng/L. The IL-6 (IL-6; 0.5 μg/mL, 48-h) was 28.56 ± 0.62 ng/L, the IL-6 (IL-6; 0.5 μg/mL, 72-h) was 48.22 ± 0.35 ng/L and the IL-6 (IL-6; 4 μg/mL, 24-h) was 14.85 ± 0.51 ng/L. For the same compound, the IL-6 (IL-6; 4 μg/mL, 48-h) was 30.07 ± 0.09 ng/L, the IL-6 (IL-6; 4 μg/mL, 72-h) was 51.13 ± 0.94 ng/L and the IL-6 (IL-6; 8 μg/mL, 24-h) was 15.61 ± 0.57 ng/L. For the same compound, the IL-6 (IL-6; 8 μg/mL, 48-h) was 34.67 ± 0.50 ng/L, the IL-6 (IL-6; 8 μg/mL, 72-h) was 64.93 ± 2.50 ng/L and the IL-6 (IL-6; 1, 4, 8 μg/mL, 24, 48, 72h) was “↘↘ (1, 4, 8 μg/mL; 24, 48, 72h)”. The “IL-6 (in words)” value (IL-6; Table 5) was “reduced”.
In the case of `NC(=O)c1nc(F)c[nH]c1=O` [FAVI, Favipiravir], the IL-10 (IL-10; 10 μg/mL, 24-h) is reported as 31.38 ± 1.80 pg/mL, the IL-10 (IL-10; 10 μg/mL, 48-h) is reported as 125.32 ± 1.57 pg/mL and the IL-10 (IL-10; 10 μg/mL, 72-h) is reported as 465.82 ± 0.57 pg/mL. For the same compound, the IL-10 (IL-10; 15 μg/mL, 24-h) was 27.97 ± 0.29 pg/mL, the IL-10 (IL-10; 15 μg/mL, 48-h) was 100.89 ± 1.28 pg/mL and the IL-10 (IL-10; 15 μg/mL, 72-h) was 411.24 ± 0.24 pg/mL. The IL-10 (IL-10; 10, 15 μg/mL, 48, 72h) was “↗↗ (10, 15 μg/mL; 48, 72h)”, the TNF-α (TNF-α; 10 μg/mL, 24-h) was 3.09 ± 1.23 pg/mL and the TNF-α (TNF-α; 10 μg/mL, 48-h) was 416.51 ± 1.28 pg/mL. For the same compound, the TNF-α (TNF-α; 10 μg/mL, 72-h) was 711.37 ± 0.70 pg/mL, the TNF-α (TNF-α; 15 μg/mL, 24-h) was 98.18 ± 1.55 pg/mL and the TNF-α (TNF-α; 15 μg/mL, 48-h) was 467.47 ± 3.11 pg/mL. For the same compound, the TNF-α (TNF-α; 15 μg/mL, 72-h) was 725.48 ± 3.51 pg/mL, the TNF-α (TNF-α; 10 ppm, 24h) was “↘↘ (10 ppm; 24h)” and the CC50 at 48 h ([2]; CC50) was > 400 µg/mL. It also gave a viability at 48 h, 0.2 μg/mL [2, 3] of 105%, a viability at 48 h, 2 μg/mL [2, 3] of 104% and a viability at 48 h, 10 μg/mL [2, 3] of 109%. For the same compound, the viability at 48 h, 100 μg/mL [2, 3] was 110%, the viability at 48 h, 400 μg/mL [2, 3] was 126% and the viability at 48 h, 0.2 μg/mL [2, 4] was 92.5%. It also gave a viability at 48 h, 2 μg/mL [2, 4] of 71.9%, a viability at 48 h, 10 μg/mL [2, 4] of 72.4% and a viability at 48 h, 100 μg/mL [2, 4] of 66.2%. For the same compound, the viability at 48 h, 400 μg/mL [2, 4] was 66.8%, the “Virus Titer” value (SARS-CoV-2 virus; 10 μg/mL, 48-h) was 37.37 viral protein fg/mL and the “Virus Titer” value (SARS-CoV-2 virus; 15 μg/mL, 24-h) was 38.87 viral protein fg/mL. The “Drug concentration that produced an undetected virus copy number” value (SARS-CoV-2 virus; MoI 0.04) was 37.5 µg/mL, the IC50 (SARS-CoV-2 virus; 24h, MoI 0.04) was 9.6 µg/mL (≈ 61.1 µM) and the IC50 (SARS-CoV-2 virus; 48h, MoI 0.04) was 18.6 µg/mL (≈ 118 µM). The IC50 (SARS-CoV-2 virus; 72h, MoI 0.04) was < 10 µg/mL, the “Results (virus detection)” value (SARS-CoV-2 virus; at the drug concentration of the same line of Table 4, MoI 0.04) was 24, 48, 72h virus still detected with decreasing number and the IL-6 (IL-6; 10 μg/mL, 24-h) was 14.09 ± 1.53 ng/L. The IL-6 (IL-6; 10 μg/mL, 48-h) was 37.28 ± 0.37 ng/L, the IL-6 (IL-6; 10 μg/mL, 72-h) was 60.21 ± 0.49 ng/L and the IL-6 (IL-6; 15 μg/mL, 24-h) was 22.18 ± 1.09 ng/L. The IL-6 (IL-6; 15 μg/mL, 48-h) was 39.75 ± 1.67 ng/L, the IL-6 (IL-6; 15 μg/mL, 72-h) was 68.61 ± 1.04 ng/L and the IL-6 (IL-6; to 100 μg/mL, 48h) was “↘↘ (to 100 μg/mL; 48h)”.
